Laboratory results from patent publication US9694016B2 (Novartis AG, priority 2013, dated 2017).
pIC50: −log10 of the molar value. Where two headings read alike, the source gives them in different places.

Target: b-Raf (V600E) (Homo sapiens (Human), UniProt P15056, V600E)
Conditions: read-out: b-Raf IC-50, AlphaScreen
[1] = 60 min pre-incubation, 3 hours reaction
[2] = 60 min pre-incubation, reaction 3 hours at room temperature

b-Raf (V600E), sequence (P15056 whole entry V600E): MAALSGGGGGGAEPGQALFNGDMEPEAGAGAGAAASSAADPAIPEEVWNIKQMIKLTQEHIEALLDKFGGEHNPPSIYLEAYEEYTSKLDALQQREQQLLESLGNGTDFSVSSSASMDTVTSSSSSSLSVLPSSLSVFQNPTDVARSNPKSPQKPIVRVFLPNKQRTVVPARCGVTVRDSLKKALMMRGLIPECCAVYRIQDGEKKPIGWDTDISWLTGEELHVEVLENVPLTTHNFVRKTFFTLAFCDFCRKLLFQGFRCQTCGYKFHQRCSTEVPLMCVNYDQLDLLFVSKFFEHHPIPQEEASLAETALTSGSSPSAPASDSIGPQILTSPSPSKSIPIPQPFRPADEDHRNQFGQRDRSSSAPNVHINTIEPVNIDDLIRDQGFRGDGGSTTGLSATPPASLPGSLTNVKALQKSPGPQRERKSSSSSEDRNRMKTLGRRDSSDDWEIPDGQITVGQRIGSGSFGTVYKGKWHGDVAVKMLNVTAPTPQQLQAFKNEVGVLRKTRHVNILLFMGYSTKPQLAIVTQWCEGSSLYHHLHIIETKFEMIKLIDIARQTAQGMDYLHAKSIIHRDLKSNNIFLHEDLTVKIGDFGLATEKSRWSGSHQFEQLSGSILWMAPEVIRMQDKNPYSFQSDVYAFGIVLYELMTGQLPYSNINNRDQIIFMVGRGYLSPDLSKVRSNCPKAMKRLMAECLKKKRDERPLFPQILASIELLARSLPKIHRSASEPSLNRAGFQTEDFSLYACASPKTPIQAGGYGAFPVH

Compound | pIC50 [1] | pIC50 (Table 2, 3 hours reaction) | also measured
Cc1ccc(NC(=O)c2cc(CN(C)C)cc(C(F)(F)F)c2)cc1-c1cc(N2CCOCC2)n(C)c(=O)c1 [Example 497, 3-((dimethylamino)methyl)-N-(4-methyl-3-(1-methyl-6-morpholino-2-oxo-1,2-dihydropyridin-4-yl)phenyl)-5-(trifluoromethyl)benzamide] | 8.55 |  | 
Cc1ccc(C(=O)Nc2cccc(C(C)(C)O)c2)cc1-c1cc(N2CCOCC2)n(C)c(=O)c1 [Example 516, N-(3-(2-hydroxypropan-2-yl)phenyl)-4-methyl-3-(1-methyl-6-morpholino-2-oxo-1,2-dihydropyridin-4-yl)benzamide] | 7.75 |  | 
Cc1ccc(NC(=O)c2ccnc(C(F)F)c2)cc1-c1cc(N2CCOCC2)nc(N2CC(C)(O)C2)c1 [Example 1072, 2-(difluoromethyl)-N-(3-(2-(3-hydroxy-3-methylazetidin-1-yl)-6-morpholinopyridin-4-yl)-4-methylphenyl)isonicotinamide] |  |  | pIC50 [2]: 8.76
COc1ccc(C(=O)Nc2cnc(Cl)c(-c3cc(N4CCOCC4)c(=O)n(C)c3)c2)cc1C(F)(F)F [Example 408, N-(2-chloro-1′-methyl-5′-morpholino-6′-oxo-1′,6′-dihydro-[3,3-bipyridin]-5-yl)-4-methoxy-3-(trifluoromethyl)benzamide] |  | 8.17 | 
CCOc1ncc(-c2cc(NC(=O)c3ccnc(C4CC4)c3)cnc2C)cc1N1CCOCC1 [Example 254, 2-cyclopropyl-N-(6′-ethoxy-2-methyl-5′-morpholino-[3,3′-bipyridin]-5-yl)isonicotinamide] |  | 8.74 | 
Cc1ncc(NC(=O)c2cccc(C(F)(F)F)c2)cc1-c1cnc(OC2CN(C)C2)c(N2CCOCC2)c1 [Example 321, N-(2-methyl-6′-((1-methylazetidin-3-yl)oxy)-5′-morpholino-[3,3′-bipyridin]-5-yl)-3-(trifluoromethyl)benzamide] |  | 7.61 | 
Cc1ccc(NC(=O)c2ccnc(C(C)(C)C#N)c2)cc1-c1cc(OCCO)nc(N2CCOCC2)c1 [Example 1161, 2-(2-cyanopropan-2-yl)-N-(3-(2-(2-hydroxyethoxy)-6-morpholinopyridin-4-yl)-4-methylphenyl)isonicotinamide] |  |  | pIC50 [2]: 8.82
Cc1ncc(NC(=O)c2ccnc(C(F)(F)F)c2)cc1-c1cnc(Cl)c(N2CCOCC2)c1 [Example 291, N-(6′-chloro-2-methyl-5′-morpholino-[3,3′-bipyridin]-5-yl)-2-(trifluoromethyl)isonicotinamide] |  | 8.64 | 
Cc1ncc(NC(=O)c2ccnc(C(C)(C)F)c2)cc1-c1cncc(N2CCOCC2)n1 [Example 534, 2-(2-fluoropropan-2-yl)-N-(6-methyl-5-(6-morpholinopyrazin-2-yl)pyridin-3-yl)isonicotinamide] | 8.22 |  | 
Cc1ncc(NC(=O)c2ccnc(C(C)(C)C#N)c2)cc1-c1cncc(N2CCOCC2)c1 [Example 297, 2-(2-cyanopropan-2-yl)-N-(2-methyl-5′-morpholino-[3,3′-bipyridin]-5-yl)isonicotinamide] |  | 7.73 | 
Cc1ncc(NC(=O)c2cc(C3CC3)nn2C)cc1-c1cc(N2CCOCC2)c(=O)n(C)c1 [Example 377, 3-cyclopropyl-N-(1′,2-dimethyl-5′-morpholino-6′-oxo-1′,6′-dihydro-[3,3′-bipyridin]-5-yl)-1-methyl-1H-pyrazole-5-carboxamide] |  | 6.70 | 
COc1ncc(-c2cc(NC(=O)c3ccnc(C4(C#N)CC4)c3)cnc2C)cc1N1CCOCC1 [Example 283, 2-(1-cyanocyclopropyl)-N-(6′-methoxy-2-methyl-5-morpholino-[3,3′-bipyridin]-5-yl)isonicotinamide] |  | 8.22 | 
CCc1cc(C(=O)Nc2ccc(C)c(-c3cc(N4CCOCC4)c(=O)n(C)c3)c2)ccn1 [Example 353, 2-ethyl-N-(4-methyl-3-(1-methyl-5-morpholino-6-oxo-1,6-dihydropyridin-3-yl)phenyl)isonicotinamide] |  | 8.92 | 
Cc1ccc(NC(=O)c2ccnc(C(C)(C)C#N)c2)cc1-c1cc(N2CCOCC2)c(=O)n(C)n1 [Example 191, 2-(2-cyanopropan-2-yl)-N-(4-methyl-3-(1-methyl-5-morpholino-6-oxo-1,6-dihydropyridazin-3-yl)phenyl)isonicotinamide] |  | 8.27 | 
Cc1ncc(NC(=O)c2cccc(C(F)(F)F)c2)cc1-c1cnc(OC(F)F)c(N2CCOCC2)c1 [Example 224, N-(6′-(difluoromethoxy)-2-methyl-5′-morpholino-[3,3′-bipyridin]-5-yl)-3-(trifluoromethyl)benzamide] |  | 8.57 | 
CCN(C(=O)c1cccc(C(F)(F)F)c1)c1cnc(C)c(-c2cnc(OC3CCOCC3)c(N3CCOCC3)c2)c1 [Example 329, N-ethyl-N-(2-methyl-5′-morpholino-6′-((tetrahydro-2H-pyran-4-yl)oxy)-[3,3′-bipyridin]-5-yl)-3-(trifluoromethyl)benzamide] |  | 5.96 | 
Cc1ncc(NC(=O)c2cccc(C(F)(F)F)c2)cc1-c1cnc(C#N)c(N2CCOCC2)c1 [Example 222, N-(6′-cyano-2-methyl-5′-morpholino-[3,3′-bipyridin]-5-yl)-3-(trifluoromethyl)benzamide] |  | 8.42 | 
Cc1ncc(NC(=O)c2ccnc(S(C)(=O)=O)c2)cc1-c1cc(N2CCOCC2)nc(N2CC(O)C2)c1 [Example 1090, N-(2′-(3-hydroxyazetidin-1-yl)-2-methyl-6′-morpholino-[3,4′-bipyridin]-5-yl)-2-(methylsulfonyl)isonicotinamide] |  |  | pIC50 [2]: 7.29
COc1cncc(NC(=O)c2ccc(C)c(-c3cc(N4CCOCC4)c(=O)n(C)c3)c2)c1 [Example 442, N-(5-methoxypyridin-3-yl)-4-methyl-3-(1-methyl-5-morpholino-6-oxo-1,6-dihydropyridin-3-yl)benzamide] | 7.16 |  | 
Cc1ncc(NC(=O)c2ccnc(C(C)(F)F)c2)cc1-c1cnc(OC(C)C)c(N2CCOCC2)c1 [Example 952, 2-(1,1-difluoroethyl)-N-(6′-isopropoxy-2-methyl-5′-morpholino-[3,3′-bipyridin]-5-yl)isonicotinamide] |  |  | pIC50 [2]: 8.70
Cn1cc(-c2cc(C(=O)Nc3cccc(C(C)(C)C#N)c3)ccc2Cl)cc(N2CCOCC2)c1=O [Example 427, 4-chloro-N-(3-(2-cyanopropan-2-yl)phenyl)-3-(1-methyl-5-morpholino-6-oxo-1,6-dihydropyridin-3-yl)benzamide] |  | 8.22 | 
CCOc1nnc(-c2cc(NC(=O)c3ccnc(C(C)(C)O)c3)ccc2C)cc1N1CCOCC1 [Example 569, N-(3-(6-ethoxy-5-morpholinopyridazin-3-yl)-4-methylphenyl)-2-(2-hydroxypropan-2-yl)isonicotinamide] | 8.55 |  | 
Cc1ccc(NC(=O)c2cc(C(C)C)on2)cc1-c1cc(N2CCOCC2)c(=O)n(C)c1 [Example 371, 5-isopropyl-N-(4-methyl-3-(1-methyl-5-morpholino-6-oxo-1,6-dihydropyridin-3-yl)phenyl)isoxazole-3-carboxamide] |  | 9.10 | 
Cc1ncc(NC(=O)c2cccc(C(F)F)c2)cc1-c1cc(N2CCOCC2)c(=O)n(C)c1 [Example 394, 3-(difluoromethyl)-N-(1′,2-dimethyl-5′-morpholino-6′-oxo-1′,6′-dihydro-[3,3′-bipyridin]-5-yl)benzamide] |  | 8.44 | 
Cc1ccc(NC(=O)c2ccnc(C(F)F)c2)cc1-c1cc(N2CCOCC2)nc(N2CC(O)C2)c1 [Example 1067, 2-(difluoromethyl)-N-(3-(2-(3-hydroxyazetidin-1-yl)-6-morpholinopyridin-4-yl)-4-methylphenyl)isonicotinamide] |  |  | pIC50 [2]: 9.22
Cc1ncc(NC(=O)c2cccc(C(F)(F)F)c2)cc1-c1cnc(O[C@H]2CC[C@@H](O)CC2)c(N2CCOCC2)c1 [Example 317, N-(6′-(((1s,4s)-4-hydroxycyclohexyl)oxy)-2-methyl-5′-morpholino-[3,3′-bipyridin]-5-yl)-3-(trifluoromethyl)benzamide] |  | 8.80 | 
Cc1ncc(NC(=O)c2cccc(C(F)(F)F)c2)cc1-c1cnc(O[C@@H]2CCOC2)c(N2CCOCC2)c1 [Example 311, (R)—N-(2-methyl-5′-morpholino-6′-((tetrahydrofuran-3-yl)oxy)-[3,3′-bipyridin]-5-yl)-3-(trifluoromethyl)benzamide] |  | 8.62 | 

More lines, main results first:

pIC50 [1] | pIC50 (Table 2, 3 hours reaction) | Compound | also measured
8.40 |  | CCNc1nc(-c2cc(NC(=O)c3ccccc3)ccc2C)cc(N2CCOCC2)n1 [Example 695, N-(3-(2-(ethylamino)-6-morpholinopyrimidin-4-yl)-4-methylphenyl)benzamide] | 
8.37 |  | Cc1ccc(NC(=O)c2cc(CN(C)C)cc(C(F)(F)F)c2)cc1-c1cc(N2CCOCC2)c(=O)n(C)n1 [Example 661, 3-((dimethylamino)methyl)-N-(4-methyl-3-(1-methyl-5-morpholino-6-oxo-1,6-dihydropyridazin-3-yl)phenyl)-5-(trifluoromethyl)benzamide] | 
7.92 |  | CCNc1nc(-c2cc(NC(=O)c3ccnc(C(C)(C)O)c3)ccc2C)cc(N2CCOC[C@H]2C)n1 [Example 712, (R)—N-(3-(2-(ethylamino)-6-(3-methylmorpholino)pyrimidin-4-yl)-4-methylphenyl)-2-(2-hydroxypropan-2-yl)isonicotinamide] | 
8.33 |  | CCC(F)(F)c1cc(C(=O)Nc2cnc(C)c(-c3cc(N4CCOCC4)c(OC)nn3)c2)ccn1 [Example 607, 2-(1,1-difluoropropyl)-N-(5-(6-methoxy-5-morpholinopyridazin-3-yl)-6-methylpyridin-3-yl)isonicotinamide] | 
8.74 |  | Cc1ncc(NC(=O)c2ccnc(C(C)(F)F)c2)cc1-c1cc(N2CCOCC2)c(OC2CCOCC2)nn1 [Example 628, 2-(1,1-difluoroethyl)-N-(6-methyl-5-(5-morpholino-6-((tetrahydro-2H-pyran-4-yl)oxy)pyridazin-3-yl)pyridin-3-yl)isonicotinamide] | 
7.83 |  | Cc1ccc(NC(=O)c2ccnc(C(C)(C)C#N)c2)cc1-c1cc(N2CCOCC2)nc(NC2CNC2)n1 [Example 786, N-(3-(2-(azetidin-3-ylamino)-6-morpholinopyrimidin-4-yl)-4-methylphenyl)-2-(2-cyanopropan-2-yl)isonicotinamide] | 
